Measured values as given in article PMC3783656 (Bioorganic & medicinal chemistry letters, 2013).
Converted amounts (≈) assume the structure as drawn.

Legend:
PRKCQ = PRKCQ (Homo sapiens, UniProt Q04759); test: KINOMEscan kinase binding; details: 10 μM; % of kinase remaining bound to bead-bound ligand
CSNK1A1 = CSNK1A1 (Homo sapiens, UniProt P48729); test: KINOMEscan kinase binding; details: 10 μM; % of kinase remaining bound to bead-bound ligand
CDK13 = CDK13 (Homo sapiens, UniProt Q14004); test: KINOMEscan kinase binding; details: 10 μM; % of kinase remaining bound to bead-bound ligand
Chain of CDK13 (Q14004 whole entry): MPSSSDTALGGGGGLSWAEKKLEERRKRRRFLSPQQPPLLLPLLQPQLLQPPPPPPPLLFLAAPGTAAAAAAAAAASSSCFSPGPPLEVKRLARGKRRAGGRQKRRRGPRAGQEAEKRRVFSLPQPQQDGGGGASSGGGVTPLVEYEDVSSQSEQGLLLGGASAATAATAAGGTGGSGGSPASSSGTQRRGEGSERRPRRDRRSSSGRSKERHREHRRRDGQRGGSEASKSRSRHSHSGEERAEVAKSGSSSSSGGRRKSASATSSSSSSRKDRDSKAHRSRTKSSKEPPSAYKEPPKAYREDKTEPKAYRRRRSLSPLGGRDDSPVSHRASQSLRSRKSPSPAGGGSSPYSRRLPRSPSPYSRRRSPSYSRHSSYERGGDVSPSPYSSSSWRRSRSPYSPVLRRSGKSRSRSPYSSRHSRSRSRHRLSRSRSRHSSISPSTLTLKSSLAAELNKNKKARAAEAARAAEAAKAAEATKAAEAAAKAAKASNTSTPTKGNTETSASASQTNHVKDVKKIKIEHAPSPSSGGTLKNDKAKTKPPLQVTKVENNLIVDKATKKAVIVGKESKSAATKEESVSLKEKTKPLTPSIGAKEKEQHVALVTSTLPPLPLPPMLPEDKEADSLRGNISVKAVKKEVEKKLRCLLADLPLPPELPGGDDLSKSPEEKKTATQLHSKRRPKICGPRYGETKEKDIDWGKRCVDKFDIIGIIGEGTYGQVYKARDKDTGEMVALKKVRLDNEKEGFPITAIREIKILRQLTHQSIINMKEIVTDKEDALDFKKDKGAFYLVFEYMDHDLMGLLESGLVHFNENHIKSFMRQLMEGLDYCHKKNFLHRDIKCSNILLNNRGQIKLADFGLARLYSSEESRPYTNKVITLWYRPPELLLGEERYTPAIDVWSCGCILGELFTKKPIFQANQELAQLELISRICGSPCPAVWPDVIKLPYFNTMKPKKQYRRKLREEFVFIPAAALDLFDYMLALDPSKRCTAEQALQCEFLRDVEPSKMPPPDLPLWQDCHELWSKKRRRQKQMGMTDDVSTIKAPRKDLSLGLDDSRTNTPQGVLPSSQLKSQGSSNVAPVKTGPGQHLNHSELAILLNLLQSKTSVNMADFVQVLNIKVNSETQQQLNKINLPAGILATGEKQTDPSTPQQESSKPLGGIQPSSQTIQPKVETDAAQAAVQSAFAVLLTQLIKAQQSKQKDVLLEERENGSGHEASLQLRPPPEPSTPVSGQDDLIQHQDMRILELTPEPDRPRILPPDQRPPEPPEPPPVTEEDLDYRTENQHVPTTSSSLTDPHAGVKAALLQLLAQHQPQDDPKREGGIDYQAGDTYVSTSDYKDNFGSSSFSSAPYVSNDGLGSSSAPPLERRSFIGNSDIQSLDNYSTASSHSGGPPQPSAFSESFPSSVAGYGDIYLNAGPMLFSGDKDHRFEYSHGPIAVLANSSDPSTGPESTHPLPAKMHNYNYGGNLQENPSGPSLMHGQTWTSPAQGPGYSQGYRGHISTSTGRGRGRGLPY

TAOK3 = TAOK3 (Homo sapiens, UniProt Q9H2K8); test: KINOMEscan kinase binding; details: 10 μM; % of kinase remaining bound to bead-bound ligand
442 kinases = test: DiscoverRX KINOMEscan analysis of 442 kinases; format: binding; details: 10 μM, KINOMEscan of 442 kinases
FLT3 (K663Q) = FLT3 (K663Q) (Homo sapiens, UniProt P36888, K663Q); test: KINOMEscan kinase binding; details: 10 μM; % of kinase remaining bound to bead-bound ligand
BMP2K = BMP2K (Homo sapiens, UniProt Q9NSY1); test: KINOMEscan kinase binding; details: 10 μM; % of kinase remaining bound to bead-bound ligand
CSNK1A1L = CSNK1A1L (Homo sapiens, UniProt Q8N752); test: KINOMEscan kinase binding; details: 10 μM; % of kinase remaining bound to bead-bound ligand
Chain of CSNK1A1L (Q8N752 whole entry): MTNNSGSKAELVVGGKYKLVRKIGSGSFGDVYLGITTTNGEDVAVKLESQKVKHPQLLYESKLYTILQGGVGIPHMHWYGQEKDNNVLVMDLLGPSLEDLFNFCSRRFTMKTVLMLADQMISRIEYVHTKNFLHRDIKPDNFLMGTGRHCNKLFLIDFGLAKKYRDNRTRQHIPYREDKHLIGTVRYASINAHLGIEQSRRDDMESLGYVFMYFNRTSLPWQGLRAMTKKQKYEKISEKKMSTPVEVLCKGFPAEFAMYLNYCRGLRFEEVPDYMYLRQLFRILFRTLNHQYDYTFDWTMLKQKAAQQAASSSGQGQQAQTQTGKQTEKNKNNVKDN

CDK4/cyclin D3 = CDK4/cyclin D3 (Homo sapiens, UniProt P11802); test: KINOMEscan kinase binding; details: 10 μM; % of kinase remaining bound to bead-bound ligand
Chain of CDK4/cyclin D3 (P11802 whole entry): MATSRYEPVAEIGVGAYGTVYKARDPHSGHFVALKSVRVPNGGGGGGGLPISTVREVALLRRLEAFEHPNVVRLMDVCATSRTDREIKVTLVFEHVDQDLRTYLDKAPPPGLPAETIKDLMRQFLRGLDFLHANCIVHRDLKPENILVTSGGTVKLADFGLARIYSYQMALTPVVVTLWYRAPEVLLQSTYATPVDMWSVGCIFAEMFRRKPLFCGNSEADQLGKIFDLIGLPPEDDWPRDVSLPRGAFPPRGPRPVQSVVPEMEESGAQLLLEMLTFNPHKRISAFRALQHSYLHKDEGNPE
Chain of CDK4/cyclin D3 (P30281 whole entry partner): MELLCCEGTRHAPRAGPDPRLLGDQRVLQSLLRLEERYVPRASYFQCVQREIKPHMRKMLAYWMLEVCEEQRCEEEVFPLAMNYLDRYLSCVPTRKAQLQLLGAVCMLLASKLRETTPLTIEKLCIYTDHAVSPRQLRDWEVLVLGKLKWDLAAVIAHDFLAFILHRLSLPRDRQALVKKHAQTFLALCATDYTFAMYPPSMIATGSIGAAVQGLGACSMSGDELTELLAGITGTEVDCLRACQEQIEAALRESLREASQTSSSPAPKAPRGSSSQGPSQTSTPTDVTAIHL

CDK7 = CDK7 (Homo sapiens, UniProt P50613); test: KINOMEscan kinase binding; details: 10 μM; % of kinase remaining bound to bead-bound ligand
Chain of CDK7 (P50613 whole entry): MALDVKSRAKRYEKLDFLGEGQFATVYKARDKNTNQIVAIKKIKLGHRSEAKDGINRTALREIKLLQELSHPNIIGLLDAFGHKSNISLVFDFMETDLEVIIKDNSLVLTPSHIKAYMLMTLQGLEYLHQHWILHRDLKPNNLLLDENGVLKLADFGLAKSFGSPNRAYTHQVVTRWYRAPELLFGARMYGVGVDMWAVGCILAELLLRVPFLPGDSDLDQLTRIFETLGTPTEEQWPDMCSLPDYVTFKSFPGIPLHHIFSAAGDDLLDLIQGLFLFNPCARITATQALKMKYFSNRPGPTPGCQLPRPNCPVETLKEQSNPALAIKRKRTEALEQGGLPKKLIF

MELK = MELK (Homo sapiens, UniProt Q14680); test: KINOMEscan kinase binding; details: 10 μM; % of kinase remaining bound to bead-bound ligand
Mouse PK studies = format: in vivo; details: IV dosing, 1 mg/kg, 10/10/80 DMSO/Tween/water
MARK2 = MARK2 (Homo sapiens, UniProt Q7KZI7); test: KINOMEscan kinase binding; details: 10 μM; % of kinase remaining bound to bead-bound ligand
Chain of MARK2 (Q7KZI7 whole entry): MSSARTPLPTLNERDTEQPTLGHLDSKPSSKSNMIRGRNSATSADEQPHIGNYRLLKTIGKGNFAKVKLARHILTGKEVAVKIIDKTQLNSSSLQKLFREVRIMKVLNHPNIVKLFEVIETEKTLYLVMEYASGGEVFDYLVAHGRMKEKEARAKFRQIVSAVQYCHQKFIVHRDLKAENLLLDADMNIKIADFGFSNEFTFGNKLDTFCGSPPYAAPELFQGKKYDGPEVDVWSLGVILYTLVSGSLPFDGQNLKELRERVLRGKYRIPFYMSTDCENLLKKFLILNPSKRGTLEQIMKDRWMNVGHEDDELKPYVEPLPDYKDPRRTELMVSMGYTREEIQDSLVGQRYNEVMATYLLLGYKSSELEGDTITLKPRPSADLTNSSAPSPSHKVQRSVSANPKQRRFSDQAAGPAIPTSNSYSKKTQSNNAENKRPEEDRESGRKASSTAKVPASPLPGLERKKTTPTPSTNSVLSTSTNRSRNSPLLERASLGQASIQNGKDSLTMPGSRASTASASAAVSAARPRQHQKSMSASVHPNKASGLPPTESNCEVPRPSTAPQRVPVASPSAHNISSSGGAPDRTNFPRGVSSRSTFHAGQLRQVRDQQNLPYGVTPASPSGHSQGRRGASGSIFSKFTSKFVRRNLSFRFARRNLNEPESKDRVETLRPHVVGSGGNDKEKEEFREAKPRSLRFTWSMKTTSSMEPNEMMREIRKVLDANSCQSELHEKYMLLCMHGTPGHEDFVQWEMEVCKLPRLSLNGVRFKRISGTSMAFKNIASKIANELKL

FLT3 [1] = target: T1, FLT3 (Homo sapiens, UniProt P36888); test: Off-target kinase inhibition, Reaction Biology Corporation; format: biochemical; details: read-out: IC50 for inhibition of off-target kinase FLT3; data obtained by Reaction Biology Corporation
T1 sequence (P36888 27-993): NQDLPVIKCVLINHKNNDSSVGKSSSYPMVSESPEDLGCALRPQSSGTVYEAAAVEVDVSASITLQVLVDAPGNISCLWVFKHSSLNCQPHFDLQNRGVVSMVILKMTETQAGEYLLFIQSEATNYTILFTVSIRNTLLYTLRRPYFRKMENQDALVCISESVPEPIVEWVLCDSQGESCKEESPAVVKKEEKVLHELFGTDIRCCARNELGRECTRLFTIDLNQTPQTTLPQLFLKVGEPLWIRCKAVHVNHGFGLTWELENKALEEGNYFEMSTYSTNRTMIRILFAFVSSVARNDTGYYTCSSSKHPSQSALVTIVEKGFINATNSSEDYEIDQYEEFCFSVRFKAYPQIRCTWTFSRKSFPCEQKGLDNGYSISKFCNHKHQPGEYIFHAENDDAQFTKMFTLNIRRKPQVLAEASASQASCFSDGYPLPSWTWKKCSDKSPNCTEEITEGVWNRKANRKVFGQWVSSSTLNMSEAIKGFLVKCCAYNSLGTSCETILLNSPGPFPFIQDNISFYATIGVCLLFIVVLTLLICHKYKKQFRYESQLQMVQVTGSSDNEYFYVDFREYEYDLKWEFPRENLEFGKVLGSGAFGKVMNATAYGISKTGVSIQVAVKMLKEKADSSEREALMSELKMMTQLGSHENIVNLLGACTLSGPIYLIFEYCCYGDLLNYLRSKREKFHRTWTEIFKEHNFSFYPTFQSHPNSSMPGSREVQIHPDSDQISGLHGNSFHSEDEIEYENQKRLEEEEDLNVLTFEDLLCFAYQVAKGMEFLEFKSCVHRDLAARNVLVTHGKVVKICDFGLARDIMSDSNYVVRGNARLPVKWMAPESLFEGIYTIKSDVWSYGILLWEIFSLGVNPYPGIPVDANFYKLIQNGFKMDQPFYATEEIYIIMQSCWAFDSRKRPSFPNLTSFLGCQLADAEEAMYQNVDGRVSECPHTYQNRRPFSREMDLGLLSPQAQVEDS

[2] = tested on: human melanoma A375 cell line; test: MTT assay against A375 melanoma cells; format: cell-based; details: read-out: MTT assay A375 EC50; human A375 melanoma cell line
LATS2 = LATS2 (Homo sapiens, UniProt Q9NRM7); test: KINOMEscan kinase binding; details: 10 μM; % of kinase remaining bound to bead-bound ligand
RIOK3 = RIOK3 (Homo sapiens, UniProt O14730); test: KINOMEscan kinase binding; details: 10 μM; % of kinase remaining bound to bead-bound ligand
FLT3 [3] = target: T1, FLT3; test: KINOMEscan kinase binding; details: 10 μM; % of kinase remaining bound to bead-bound ligand
CDK4/cyclin D1 = CDK4/cyclin D1 (Homo sapiens, UniProt P11802); test: KINOMEscan kinase binding; details: 10 μM; % of kinase remaining bound to bead-bound ligand
Chain of CDK4/cyclin D1 (P11802 whole entry): as the sequence (P11802 whole entry) above
Chain of CDK4/cyclin D1 (P24385 whole entry partner): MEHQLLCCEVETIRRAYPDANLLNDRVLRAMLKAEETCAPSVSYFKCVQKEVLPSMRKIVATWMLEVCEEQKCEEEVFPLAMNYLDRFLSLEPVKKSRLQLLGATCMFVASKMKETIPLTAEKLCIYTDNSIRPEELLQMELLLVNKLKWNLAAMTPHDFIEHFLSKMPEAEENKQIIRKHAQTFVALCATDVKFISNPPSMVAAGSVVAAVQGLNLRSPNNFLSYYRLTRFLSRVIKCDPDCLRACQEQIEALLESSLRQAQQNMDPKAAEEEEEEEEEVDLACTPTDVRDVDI

FLT3 (ITD) = test: KINOMEscan kinase binding; details: 10 μM; % of kinase remaining bound to bead-bound ligand
FLT3 (D835Y) = FLT3 (D835Y) (Homo sapiens, UniProt P36888, D835Y); test: KINOMEscan kinase binding; details: 10 μM; % of kinase remaining bound to bead-bound ligand
CK1δ [4] = target: T2, CK1δ (Homo sapiens, UniProt P48730); test: Kinetic analysis; format: biochemical; details: ATP competitive
FLT3 (D835H) = FLT3 (D835H) (Homo sapiens, UniProt P36888, D835H); test: KINOMEscan kinase binding; details: 10 μM; % of kinase remaining bound to bead-bound ligand
[5] = Microsome stability, mouse liver microsomes; details: mouse liver microsomes; third value of h/r/m
[6] = Microsome stability, human liver microsomes; details: human liver microsomes; first value of h/r/m
FLT3 (N841L) = test: KINOMEscan kinase binding; details: 10 μM; % of kinase remaining bound to bead-bound ligand
CSNK1D [CK1δ] = CSNK1D [CK1δ] (Homo sapiens, UniProt P48730); test: KINOMEscan kinase binding; details: 10 μM; % of kinase remaining bound to bead-bound ligand
CSNK1E [CK1ε] = CSNK1E [CK1ε] (Homo sapiens, UniProt P49674); test: KINOMEscan kinase binding; details: 10 μM; % of kinase remaining bound to bead-bound ligand
[7] = Microsome stability, rat liver microsomes; details: rat liver microsomes; second value of h/r/m
MAST1 = MAST1 (Homo sapiens, UniProt Q9Y2H9); test: KINOMEscan kinase binding; details: 10 μM; % of kinase remaining bound to bead-bound ligand
CK1δ [8] = target: T2, CK1δ; test: CK1δ inhibition, Reaction Biology Corp.; format: biochemical; details: read-out: IC50 CK1δ; data obtained by Reaction Biology Corp.
ROCK2 = ROCK2 (Homo sapiens, UniProt O75116); test: KINOMEscan kinase binding; details: 10 μM; % of kinase remaining bound to bead-bound ligand
[9] = Solubility in DMEM/10% FBS; format: physicochemical
NLK = NLK (Homo sapiens, UniProt Q9UBE8); test: KINOMEscan kinase binding; details: 10 μM; % of kinase remaining bound to bead-bound ligand
Solubility in PBS buffer = format: physicochemical

Chain of CSNK1A1 (P48729 whole entry): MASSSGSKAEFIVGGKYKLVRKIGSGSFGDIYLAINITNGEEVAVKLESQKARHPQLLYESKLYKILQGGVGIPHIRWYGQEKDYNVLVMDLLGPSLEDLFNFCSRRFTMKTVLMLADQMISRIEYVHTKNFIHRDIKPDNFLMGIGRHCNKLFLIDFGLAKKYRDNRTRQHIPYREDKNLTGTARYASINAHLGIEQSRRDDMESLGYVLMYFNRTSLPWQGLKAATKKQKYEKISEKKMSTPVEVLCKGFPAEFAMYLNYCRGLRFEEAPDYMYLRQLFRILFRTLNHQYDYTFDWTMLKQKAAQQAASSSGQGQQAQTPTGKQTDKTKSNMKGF
Chain of PRKCQ (Q04759 whole entry): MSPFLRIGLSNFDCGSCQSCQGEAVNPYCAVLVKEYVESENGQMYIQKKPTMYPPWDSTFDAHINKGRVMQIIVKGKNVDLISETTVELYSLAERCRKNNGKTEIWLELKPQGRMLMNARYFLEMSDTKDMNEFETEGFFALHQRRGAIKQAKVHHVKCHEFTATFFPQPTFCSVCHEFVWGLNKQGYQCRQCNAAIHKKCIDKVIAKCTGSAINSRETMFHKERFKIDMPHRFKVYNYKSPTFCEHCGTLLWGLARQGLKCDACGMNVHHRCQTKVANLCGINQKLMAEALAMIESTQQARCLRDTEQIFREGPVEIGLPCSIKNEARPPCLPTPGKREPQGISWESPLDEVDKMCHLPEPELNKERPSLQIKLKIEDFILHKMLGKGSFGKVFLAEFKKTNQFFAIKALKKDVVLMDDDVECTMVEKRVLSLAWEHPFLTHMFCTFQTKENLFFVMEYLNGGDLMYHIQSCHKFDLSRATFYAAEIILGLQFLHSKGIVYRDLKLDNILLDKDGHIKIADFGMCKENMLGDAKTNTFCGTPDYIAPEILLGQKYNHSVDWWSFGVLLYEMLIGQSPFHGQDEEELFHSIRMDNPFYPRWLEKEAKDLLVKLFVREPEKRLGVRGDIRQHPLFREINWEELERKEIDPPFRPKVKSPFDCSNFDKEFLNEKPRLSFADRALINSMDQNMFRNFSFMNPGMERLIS

Compound | % control activity, PRKCQ (PRKCQ) | % control activity, CSNK1A1 (CSNK1A1) | % control activity, CDK13 (CDK13) | % control activity, BMP2K (BMP2K) | % control activity, CSNK1A1L (CSNK1A1L) | % control activity, CDK4/cyclin D3 (CDK4/cyclin D3) | % control activity, CDK7 (CDK7) | AUC (Mouse PK studies) | Cl (Mouse PK studies) | Cmax (Mouse PK studies) | T1/2 (Mouse PK studies) | % control activity, MARK2 (MARK2) | IC50 (FLT3 [1]) | EC50 [2] | % control activity, LATS2 (LATS2) | % control activity, RIOK3 (RIOK3) | % control activity, FLT3 (FLT3 [3]) | % control activity, CDK4/cyclin D1 (CDK4/cyclin D1) | % control activity, FLT3 (ITD) (FLT3 (ITD)) | further results
Fc1cccc(-n2cnc3c(NCc4nc5c(F)c(F)ccc5[nH]4)nc(N4CCOCC4)nc32)c1 [SR-3029] | 88% | 22% | 100% | 39% | 22% | 19% | 38% | 6.35 µM·h | 0.33 L/h/kg | 7.3 µM | 54 min | 7.3% | 3 µM | 0.086 µM | 26% | 100% | 3.7% | 4.4% | 19% | % control activity, TAOK3 (TAOK3): 34%; Number of off-target kinases inhibited ≥90% (442 kinases): 6; % control activity, FLT3 (K663Q) (FLT3 (K663Q)): 12%; % control activity, MELK (MELK): 22%
O=[N+]([O-])c1cccc2[nH]c(CNc3nc(N4CCOCC4)nc4c3ncn4-c3ccsc3)nc12 [SR-1277] | 100% | 63% | 1% | 6.2% | 9.6% | 56% | 72% | 1.26 µM·h | 0.168 L/h/kg | 1.2 µM | 85.2 min | 100% | 0.305 µM | 0.022 µM | 100% | 9.6% | 3.4% | 56% | 3.7% | % control activity, FLT3 (D835Y) (FLT3 (D835Y)): 11%; Ki (CK1δ [4]): 0.069 µM; % control activity, FLT3 (D835H) (FLT3 (D835H)): 7.3%; Microsome stability T1/2 (mouse) [5]: 2 min; Microsome stability T1/2 (human) [6]: 7 min; % control activity, FLT3 (N841L) (FLT3 (N841L)): 11%; % control activity, CSNK1D [CK1δ] (CSNK1D [CK1δ]): 4.2%; % control activity, CSNK1E [CK1ε] (CSNK1E [CK1ε]): 0.5%; Microsome stability T1/2 (rat) [7]: 5 min; % control activity, MAST1 (MAST1): 100%; IC50 (CK1δ [8]): 0.049 µM; % control activity, ROCK2 (ROCK2): 100%; Solubility [9]: 1 µM (≈ 0.478 µg/mL); % control activity, NLK (NLK): 38%; Solubility (Solubility in PBS buffer): 1 µM (≈ 0.478 µg/mL)
